From PubChem BioAssay AID330 (DTP/NCI, 2004)
Values joined by “and” are separate entries in the source; they are usually repeats but may differ in a detail not shown here. Equal entries are not always repeated. Inconclusive results and toxic doses are left out. Rule for the calls: active = survival T/C of 150% or more; inactive = T/C below 125% in these data.

System: P388 leukemia ip, CD2F1 mice, survival T/C
Experiment: NCI In Vivo Anticancer Drug Screen. Data for tumor model P388 Leukemia (intraperitoneal) in CD2F1 (CDF1) mice
Settings: endpoint: median survival time, higher = longer survival
Procedure, shortened: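 Mice carrying the transplanted tumor received test compound or vehicle. Survival was recorded in each group, and the value is the treated-group measurement divided by that of the vehicle-treated control group.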

[1] = dose: 50.0 mg/kg/injection, schedule: Q01DX009 (ip), vehicle: Klucel (hydroxypropylcellulose) (HPC)
[2] = dose: 100.0 mg/kg/injection, schedule: Q01DX009 (ip), vehicle: Klucel (hydroxypropylcellulose) (HPC)
[3] = dose: 200.0 mg/kg/injection, schedule: Q01DX009 (ip), vehicle: Klucel (hydroxypropylcellulose) (HPC)
[4] = dose: 60.0 mg/kg/injection, schedule: Q01DX005 (ip), vehicle: Klucel (hydroxypropylcellulose) (HPC)
[5] = dose: 120.0 mg/kg/injection, schedule: Q01DX005 (ip), vehicle: Klucel (hydroxypropylcellulose) (HPC)
[6] = dose: 240.0 mg/kg/injection, schedule: Q01DX005 (ip), vehicle: Klucel (hydroxypropylcellulose) (HPC)
[7] = dose: 12.5 mg/kg/injection, schedule: Q01DX009 (ip), vehicle: saline with Tween-80
[8] = dose: 25.0 mg/kg/injection, schedule: Q01DX009 (ip), vehicle: saline with Tween-80
[9] = dose: 50.0 mg/kg/injection, schedule: Q01DX009 (ip), vehicle: saline with Tween-80
[10] = dose: 60.0 mg/kg/injection, schedule: Q01DX005 (ip), vehicle: saline with Tween-80
[11] = dose: 120.0 mg/kg/injection, schedule: Q01DX005 (ip), vehicle: saline with Tween-80
[12] = dose: 240.0 mg/kg/injection, schedule: Q01DX005 (ip), vehicle: saline with Tween-80
[13] = dose: 100.0 mg/kg/injection, schedule: Q04DX003 (ip), vehicle: saline with Tween-80
[14] = dose: 200.0 mg/kg/injection, schedule: Q04DX003 (ip), vehicle: saline with Tween-80
[15] = dose: 400.0 mg/kg/injection, schedule: Q04DX003 (ip), vehicle: saline with Tween-80
[16] = dose: 100.0 mg/kg/injection, schedule: Q01DX009 (ip), vehicle: saline with Tween-80
[17] = dose: 200.0 mg/kg/injection, schedule: Q01DX009 (ip), vehicle: saline with Tween-80

Measured: T/C

Cc1nn(-c2nc(-c3ccccc3)cs2)c(C)c1C
inactive: [1] 98 % of control | [2] 96 % of control | [3] 101 % of control

c1cnc(NC(Nc2ncccn2)C2CCCCC2)nc1
inactive: [4] 100 % of control | [5] 100 % of control | [6] 94 % of control

CC1=C/C(=N\[Se]c2ccccc2)C(=O)C(C)=C1
inactive: dose: 100.0 mg/kg/injection, schedule: Q04DX003 (ip), vehicle: Klucel (hydroxypropylcellulose) (HPC) 100 % of control | dose: 200.0 mg/kg/injection, schedule: Q04DX003 (ip), vehicle: Klucel (hydroxypropylcellulose) (HPC) 91 % of control | dose: 400.0 mg/kg/injection, schedule: Q04DX003 (ip), vehicle: Klucel (hydroxypropylcellulose) (HPC) 96 % of control

CC(=O)NS(=O)(=O)c1ccc(N=NC2C(=O)N(C(=O)c3ccc(Cl)cc3)N=C2C)cc1 (centres undefined)
inactive: dose: 1.5 mg/kg/injection, schedule: Q01DX001 (ip), vehicle: saline with Tween-80 100 % of control | dose: 3.0 mg/kg/injection, schedule: Q01DX001 (ip), vehicle: saline with Tween-80 104 % of control | dose: 6.0 mg/kg/injection, schedule: Q01DX001 (ip), vehicle: saline with Tween-80 107 % of control | dose: 12.0 mg/kg/injection, schedule: Q01DX001 (ip), vehicle: saline with Tween-80 100 % of control | dose: 12.5 mg/kg/injection, schedule: Q01DX001 (ip), vehicle: saline with Tween-80 94 % of control

CCCCCCCCCCCC[N+](C)([O-])Cc1ccccc1 (centres undefined)
inactive: [1] 89 % of control

O=N[O-].O=N[O-].O=N[O-].[Co+3].[NH-]CC[N-]CC[NH-]
inactive: [7] 95 % of control | [8] 104 % of control | [9] 114 % of control

CC(N)(CCSCP(=O)(O)O)C(=O)O (centres undefined)
inactive: [10] 99 % of control | [11] 91 % of control

OCC(O)C(O)C(O)c1nnc2c3ccccc3c(-c3ccccc3)nn12 (centres undefined)
inactive: dose: 100.0 mg/kg/injection, schedule: Q01DX001 (ip), vehicle: saline with Tween-80 89 % of control | dose: 100.0 mg/kg/injection, schedule: Q04DX002 (ip), vehicle: saline with Tween-80 91 % of control | dose: 200.0 mg/kg/injection, schedule: Q01DX001 (ip), vehicle: saline with Tween-80 90 % of control | dose: 200.0 mg/kg/injection, schedule: Q04DX002 (ip), vehicle: saline with Tween-80 90 % of control | dose: 400.0 mg/kg/injection, schedule: Q01DX001 (ip), vehicle: saline with Tween-80 88 % of control | dose: 400.0 mg/kg/injection, schedule: Q04DX002 (ip), vehicle: saline with Tween-80 93 % of control

CCNC(=O)NS(=O)(=O)c1ccc(Sc2ccc(Cl)cc2)nc1
inactive: [10] 102 % of control | [11] 105 % of control | [12] 95 % of control

C=CCn1ccn(C)c1=S
inactive: [13] 101 % of control | [14] 98 % of control | [15] 102 % of control

CC(C)n1c(=O)nc(-c2ccccc2)c2cc3c(cc21)OCO3
inactive: [1] 106 % of control | [2] 108 % of control | [3] 91 % of control

CC1(C)CCCc2conc21
inactive: [9] 96 % of control | [16] 101 % of control | [17] 96 % of control

CC(C)(C)n1nc(C2CC2)c(Br)c1NC(=O)c1ccccc1F
inactive: dose: 30.0 mg/kg/injection, schedule: Q01DX005 (ip), vehicle: Klucel (hydroxypropylcellulose) (HPC) 100 % of control | [4] 98 % of control | [5] 104 % of control | [6] 100 % of control

Clc1cccc(-c2nc(N3CCOCC3)c3c4c(sc3n2)CCC4)c1
inactive: [4] 101 % of control | [5] 97 % of control | [6] 97 % of control

CCCCCCCCCC1(O)OC(=O)C(C)=C1C (centres undefined)
inactive: dose: 12.5 mg/kg/injection, schedule: Q04DX003 (ip), vehicle: saline with Tween-80 115 % of control | dose: 25.0 mg/kg/injection, schedule: Q04DX003 (ip), vehicle: saline with Tween-80 100 % of control | dose: 50.0 mg/kg/injection, schedule: Q04DX003 (ip), vehicle: saline with Tween-80 102 % of control

Cc1ccc(S(=O)(=O)C23N=NC(C)(C)C2N=NC3(C)C)cc1 (centres undefined)
inactive: [4] 101 % of control | [5] 100 % of control | [6] 98 % of control

CCCCCCCCCCCCO[P+](=O)OCCCCCCCCCCCC
inactive: dose: 50.0 mg/kg/injection, schedule: Q01DX009 (ip), vehicle: saline sonified 110 % of control | dose: 66.0 mg/kg/injection, schedule: Q01DX009 (ip), vehicle: saline with Tween-80 109 % of control | dose: 100.0 mg/kg/injection, schedule: Q01DX009 (ip), vehicle: saline sonified 110 % of control | [16] 100 % of control and 95 % of control | [13] 95 % of control | dose: 150.0 mg/kg/injection, schedule: Q01DX009 (ip), vehicle: saline with Tween-80 100 % of control | [17] 90 % of control | [14] 91 % of control | dose: 400.0 mg/kg/injection, schedule: Q01DX009 (ip), vehicle: saline with Tween-80 90 % of control | [15] 95 % of control

c1ccc(Nc2nnnn2C2CCCCC2)cc1
inactive: dose: 6.25 mg/kg/injection, schedule: Q01DX009 (ip), vehicle: saline 101 % of control | dose: 12.5 mg/kg/injection, schedule: Q01DX009 (ip), vehicle: saline 105 % of control | dose: 25.0 mg/kg/injection, schedule: Q01DX009 (ip), vehicle: saline 100 % of control | dose: 50.0 mg/kg/injection, schedule: Q01DX009 (ip), vehicle: saline 108 % of control

NC(Cc1ccc(O)cc1)C(=O)N/N=C/c1ccccc1O (centres undefined)
inactive: dose: 50.0 mg/kg/injection, schedule: Q01DX005 (ip), vehicle: saline with Tween-80 92 % of control | dose: 100.0 mg/kg/injection, schedule: Q01DX005 (ip), vehicle: saline with Tween-80 90 % of control | dose: 200.0 mg/kg/injection, schedule: Q01DX005 (ip), vehicle: saline with Tween-80 113 % of control

Clc1cccc(C(Nc2nncs2)Nc2nncs2)c1Cl
inactive: [10] 89 % of control | [11] 100 % of control | [12] 96 % of control

C[CH2][Pb]([CH2]C)([CH2]C)[O]C(=O)c1ccccc1
inactive: dose: 0.75 mg/kg/injection, schedule: Q01DX009 (ip), vehicle: Klucel (hydroxypropylcellulose) (HPC) 113 % of control | dose: 1.5 mg/kg/injection, schedule: Q01DX009 (ip), vehicle: Klucel (hydroxypropylcellulose) (HPC) 115 % of control | dose: 3.0 mg/kg/injection, schedule: Q01DX009 (ip), vehicle: Klucel (hydroxypropylcellulose) (HPC) 123 % of control | dose: 6.0 mg/kg/injection, schedule: Q01DX009 (ip), vehicle: Klucel (hydroxypropylcellulose) (HPC) 123 % of control | dose: 12.0 mg/kg/injection, schedule: Q01DX009 (ip), vehicle: Klucel (hydroxypropylcellulose) (HPC) 97 % of control

Cc1ccc(O)c(N=Nc2c(O)cc(S(=O)(=O)O)c3ccccc23)c1
inactive: dose: 50.0 mg/kg/injection, schedule: Q01DX009 (ip), vehicle: suspension in saline 100 % of control | dose: 100.0 mg/kg/injection, schedule: Q01DX009 (ip), vehicle: suspension in saline 95 % of control

COc1ccc(C(C)(C)CC(C)(C)C)cc1
inactive: [7] 101 % of control | [8] 104 % of control | [9] 104 % of control | [16] 109 % of control

NCC(=O)c1ccc2oc3ccccc3c2c1
inactive: [2] 112 % of control | [3] 118 % of control
